Earlier results as cited in patent US20210290592A1, “COMPOSITION AND METHOD FOR OPIOID SPARING” (Zelira Therapeutics Operations Pty Ltd., priority 2018, published 2021).

Settings: treatment group, 5 mg THC, n=105; 74 mg in control group, difference not statistically significant

CCCCCc1cc(O)c2c(c1)OC(C)(C)[C@@H]1CCC(C)=C[C@@H]21 [dronabinol]
Median dose of micro-opioid agonist piritramide in the two days post surgery: 54 mg
